Results: patent publication US12285407B2, “Bis-indolylmethane derivatives and uses thereof” (The University of The West Indies, priority 2018, dated 2025)
Like-named read-outs stand apart in the source and are kept apart here.

Assays:
Test in all cases: Checkerboard synergy (FICI) of antibiotics with SP-BIM
Staphylococcus aureus = format: cell-based; conditions: Staphylococcus aureus, Staphylococcus aureus; for MIC: 24 h, antibiotic alone, read-out: MIC antibiotic only
Streptococcus pneumoniae = format: cell-based; conditions: for MIC: 24 h, antibiotic alone, read-out: MIC antibiotic only
Bacillus cereus = format: cell-based
Enterococcus faecium = format: cell-based; conditions: Enterococcus faecium, Enterococcus faecium; for MIC: 24 h, antibiotic alone, read-out: MIC antibiotic only
Klebsiella pneumoniae = format: cell-based; conditions: for MIC: 24 h, antibiotic alone, read-out: MIC antibiotic only
Escherichia coli = system: Escherichia coli; parameters: MIC SP-BIM 13 only / MIC in combination: Antibiotic: unit not given beside the values; conditions: for MIC: 24 h
Candida albicans = system: Candida albicans; parameters: MIC SP-BIM 13 only / MIC in combination: Antibiotic / MIC antibiotic only: unit not given beside the values
[1] = SP-BIM 9 in combination with the labelled antibiotic
[2] = SP-BIM 13 in combination with the labelled antibiotic
[3] = antibiotic in combination with SP-BIM 9
[4] = antibiotic in combination with SP-BIM 13
[5] = Streptococcus pneumonia (title: Streptococcus pyogenes), antibiotic + SP-BIM 9
[6] = Streptococcus pneumoniae, antibiotic + SP-BIM 13
[7] = MIC of the antibiotic in combination with SP-BIM 13

- MIC (Staphylococcus aureus; SP-BIM 9 checkerboard): 1 µg/mL
- MIC (Staphylococcus aureus; SP-BIM 13 checkerboard): 1 µg/mL
- MIC in combination, Antibiotic (Staphylococcus aureus; [3]): 0.5 µg/mL
- MIC in combination, Antibiotic (Staphylococcus aureus; [4]): 0.5 µg/mL
- MIC (Streptococcus pneumoniae; Streptococcus pneumoniae, Streptococcus pneumonia (title: Streptococcus pyogenes), SP-BIM 9 checkerboard): 2 µg/mL
- MIC (Streptococcus pneumoniae; Streptococcus pneumoniae, Streptococcus pneumoniae, SP-BIM 13 checkerboard): 2 µg/mL
- MIC in combination, Antibiotic (Streptococcus pneumoniae; Streptococcus pneumoniae, antibiotic in combination with SP-BIM 13): 1 µg/mL
- MIC (Bacillus cereus; 24 h, antibiotic alone, SP-BIM 9 checkerboard, read-out: MIC antibiotic only): 8 µg/mL
- MIC in combination, SP-BIM 9 (Bacillus cereus; SP-BIM 9 concentration in combination with the labelled antibiotic): 16 µg/mL
- MIC in combination, Antibiotic (Bacillus cereus; [3]): 2 µg/mL
- MIC (Enterococcus faecium; SP-BIM 9 checkerboard): 8 µg/mL
- MIC (Enterococcus faecium; SP-BIM 13 checkerboard): 8 µg/mL
- MIC in combination, Antibiotic (Enterococcus faecium; [4]): 1 µg/mL
- MIC (Klebsiella pneumoniae; SP-BIM 9 checkerboard): 2 µg/mL
- MIC (Klebsiella pneumoniae; SP-BIM 13 checkerboard): 2 µg/mL
- MIC in combination, Antibiotic (Klebsiella pneumoniae; [3]): 0.5 µg/mL
- MIC in combination, Antibiotic (Klebsiella pneumoniae; [4]): 0.5 µg/mL
- MIC (Escherichia coli; read-out: MIC antibiotic only, Escherichia coli, antibiotic alone): 2 µg/mL
- MIC (Escherichia coli; read-out: MIC antibiotic only, Escherichia coli, antibiotic alone, SP-BIM 9 checkerboard): 2 µg/mL
- MIC in combination: Antibiotic (Escherichia coli; [7]): 1
- MIC (Candida albicans; 24 h, read-out: MIC antibiotic only): 63 µg/mL
- MIC in combination: Antibiotic (Candida albicans; [7]): 63
SMILES: O=C(O)c1cn(C2CC2)c2cc(N3CCNCC3)c(F)cc2c1=O [Ciprofloxacin, ciprofloxacin]
- FIC of SP-BIM 9 (Staphylococcus aureus; [1]): 0.02
- FIC of SP-BIM 13 (Staphylococcus aureus; [2]): 0.5
- Interpretation (Staphylococcus aureus; antibiotic + SP-BIM 9): Synergy (Synergy: FICI≤0.5)
- Σ FIC (Staphylococcus aureus; antibiotic + SP-BIM 9): <0.52
- Interpretation (Staphylococcus aureus; antibiotic + SP-BIM 13): Additive (Additive: FICI>0.5-1.0)
- Σ FIC (Staphylococcus aureus; antibiotic + SP-BIM 13): 1.0
- FIC of antibiotic (Staphylococcus aureus; in combination with SP-BIM 9): 0.50
- FIC of antibiotic (Staphylococcus aureus; in combination with SP-BIM 13): 0.5
- FIC of SP-BIM 9 (Streptococcus pneumoniae; Streptococcus pneumonia (title: Streptococcus pyogenes), SP-BIM 9 in combination with the labelled antibiotic): 0.26
- Interpretation (Streptococcus pneumoniae; [5]): Synergy (Synergy: FICI≤0.5)
- Σ FIC (Streptococcus pneumoniae; [5]): <0.27
- FIC of antibiotic (Streptococcus pneumoniae; Streptococcus pneumonia (title: Streptococcus pyogenes), in combination with SP-BIM 9): 0.01
- FIC of SP-BIM 13 (Streptococcus pneumoniae; Streptococcus pneumoniae, SP-BIM 13 in combination with the labelled antibiotic): 0.5
- Interpretation (Streptococcus pneumoniae; [6]): Additive (Additive: FICI>0.5-1.0)
- Σ FIC (Streptococcus pneumoniae; [6]): <1.0
- FIC of antibiotic (Streptococcus pneumoniae; Streptococcus pneumoniae, in combination with SP-BIM 13): 0.5
- FIC of SP-BIM 9 (Bacillus cereus; [1]): 0.064
- FIC of SP-BIM 13 (Bacillus cereus; [2]): 0.0
- Interpretation (Bacillus cereus; antibiotic + SP-BIM 9): Synergy (Synergy: FICI≤0.5)
- Σ FIC (Bacillus cereus; antibiotic + SP-BIM 9): <0.3
- Interpretation (Bacillus cereus; antibiotic + SP-BIM 13): Additive (Additive: FICI>0.5-1.0)
- Σ FIC (Bacillus cereus; antibiotic + SP-BIM 13): 1.0
- FIC of antibiotic (Bacillus cereus; in combination with SP-BIM 9): 0.25
- FIC of antibiotic (Bacillus cereus; in combination with SP-BIM 13): 1.00
- FIC of SP-BIM 13 (Enterococcus faecium; [2]): 0.5
- Interpretation (Enterococcus faecium; antibiotic + SP-BIM 13): Additive (Additive: FICI>0.5-1.0)
- Σ FIC (Enterococcus faecium; antibiotic + SP-BIM 13): 0.6
- FIC of antibiotic (Enterococcus faecium; in combination with SP-BIM 13): 0.1
- FIC of SP-BIM 9 (Klebsiella pneumoniae; [1]): 0.252
- FIC of SP-BIM 13 (Klebsiella pneumoniae; [2]): 0.1
- Interpretation (Klebsiella pneumoniae; antibiotic + SP-BIM 9): Synergy (Synergy: FICI≤0.5)
- Σ FIC (Klebsiella pneumoniae; antibiotic + SP-BIM 9): <0.5
- Interpretation (Klebsiella pneumoniae; antibiotic + SP-BIM 13): Synergy (Synergy: FICI≤0.5)
- Σ FIC (Klebsiella pneumoniae; antibiotic + SP-BIM 13): <0.4
- FIC of antibiotic (Klebsiella pneumoniae; in combination with SP-BIM 9): 0.25
- FIC of antibiotic (Klebsiella pneumoniae; in combination with SP-BIM 13): 0.3
- FIC of SP-BIM 9 (Escherichia coli; [1]): 0.128
- FIC of SP-BIM 13 (Escherichia coli; [2]): 0.1
- Interpretation (Escherichia coli; antibiotic + SP-BIM 9): Synergy (Synergy: FICI≤0.5)
- Σ FIC (Escherichia coli; antibiotic + SP-BIM 9): <0.4
- Interpretation (Escherichia coli; antibiotic + SP-BIM 13): Additive (Additive: FICI>0.5-1.0)
- Σ FIC (Escherichia coli; antibiotic + SP-BIM 13): <0.6
- FIC of antibiotic (Escherichia coli; combination with SP-BIM 13): 0.5
- FIC of antibiotic (Escherichia coli; in combination with SP-BIM 9): 0.25
- FIC of SP-BIM 13 (Candida albicans; [2]): 1.0
- Interpretation (Candida albicans; antibiotic + SP-BIM 13): Indifferent (Indifferent: FICI>1.0-4.0)
- Σ FIC (Candida albicans; antibiotic + SP-BIM 13): <2.0
- FIC of antibiotic (Candida albicans; combination with SP-BIM 13): 1.0
